Data reported in paper PMC7993833, “EDP-938, a novel nucleoprotein inhibitor of respiratory syncytial virus, demonstrates potent antiviral activities in vitro and in a non-human primate model” (PLoS Pathogens, 2021).

Legend:
[1] = system: RSV-B clinical isolates; experiment: Susceptibility of USA-derived RSV-B clinical isolates; type: cell-based; conditions: human respiratory syncytial virus
Description: Serial dilutions of the compound were added to cells infected with RSV-A isolates at an MOI of 0.1 (except for isolate 629-9-2 at an MOI of 0.01) or RSV-B isolates at an MOI of 0.5 (expect for isolate 629-24/2007 at an MOI of 0.0044) and were treated for 5 or 6 days, respectively. […] This is consistent with the fact that the viral N protein, which is the putative target of the antiviral effect of EDP-938, is the most conserved RSV protein [11].
HEp-2, Vero, and BHK were seeded at 8,000 cells per well (cpw) in growth medium (Dulbecco’s Modified Eagle Medium (DMEM) with 1% GlutaMAX, 1% Penicillin/Streptomycin (P/S), 1% Non-Essential Amino Acids (NEAA), 10% Fetal Bovine Serum (FBS)) or (Minimum Essential Medium (MEM) with 10% FBS, 1% NEAA, 1% P/S) or (Eagle’s Minimum Essential Medium with L-Glutamine, with 10% FBS, 1% P/S) respectively. A549 seeded at 3,000 cpw in F-12K Kaighn’s Modification nutrient mixture with 10% FBS, 1% NEAA, 1% P/S. Cells seeded at time of infection in 96-well plates, final well volume 100μL. Compounds suspended in DMSO, serially diluted and added to wells at 0.5% final DMSO concentration. […] Cytopathic effect (CPE) determined using ATPlite (Perkin Elmer) measured with Envision luminometer. […] All EC50s were calculated using the XLFit four-parameter logistic model 200 in Microsoft Excel. […]

[2] = system: RSV-A and RSV-B laboratory strains; experiment: RT-qPCR assay, RSV laboratory strains across primate cell lines; type: cell-based; conditions: human respiratory syncytial virus, in Primates, read-out: EC50 values, reduction in viral load by RT-qPCR (range over strains and cells)
Description: (§1) The activity of EDP-938 against both RSV-A and RSV-B was evaluated in vitro against multiple laboratory strains commonly used for antiviral screens in HEp-2 cells, human adenocarcinomic alveolar basal epithelial cells (A549), monkey kidney-derived cells (Vero), and Baby Hamster Kidney cells (BHK). Serial dilutions of the compound were added to cells infected with RSV-A at a MOI of 0.1 or RSV-B at an MOI of 0.5 and treated for 5 or 6 days, respectively.
(§2) HEp-2, Vero, and BHK were seeded at 8,000 cells per well (cpw) in growth medium (Dulbecco’s Modified Eagle Medium (DMEM) with 1% GlutaMAX, 1% Penicillin/Streptomycin (P/S), 1% Non-Essential Amino Acids (NEAA), 10% Fetal Bovine Serum (FBS)) or (Minimum Essential Medium (MEM) with 10% FBS, 1% NEAA, 1% P/S) or (Eagle’s Minimum Essential Medium with L-Glutamine, with 10% FBS, 1% P/S) respectively. A549 seeded at 3,000 cpw in F-12K Kaighn’s Modification nutrient mixture with 10% FBS, 1% NEAA, 1% P/S. Cells seeded at time of infection in 96-well plates, final well volume 100μL. Compounds suspended in DMSO, serially diluted and added to wells at 0.5% final DMSO concentration. […] Cytopathic effect (CPE) determined using ATPlite (Perkin Elmer) measured with Envision luminometer. […] All EC50s were calculated using the XLFit four-parameter logistic model 200 in Microsoft Excel.

[3] = system: RSV-B VR-955; experiment: RT-qPCR assay, RSV-B VR-955 in HEp-2 cells; type: cell-based; conditions: human respiratory syncytial virus
Description: (§3) HEp-2, Vero, and BHK were seeded at 8,000 cells per well (cpw) in growth medium (Dulbecco’s Modified Eagle Medium (DMEM) with 1% GlutaMAX, 1% Penicillin/Streptomycin (P/S), 1% Non-Essential Amino Acids (NEAA), 10% Fetal Bovine Serum (FBS)) or (Minimum Essential Medium (MEM) with 10% FBS, 1% NEAA, 1% P/S) or (Eagle’s Minimum Essential Medium with L-Glutamine, with 10% FBS, 1% P/S) respectively. A549 seeded at 3,000 cpw in F-12K Kaighn’s Modification nutrient mixture with 10% FBS, 1% NEAA, 1% P/S. Cells seeded at time of infection in 96-well plates, final well volume 100μL. Compounds suspended in DMSO, serially diluted and added to wells at 0.5% final DMSO concentration. Viral stocks stabilized with 25% sucrose, previously titered using plaque assay, were added at desired MOI. Sucrose added to cells-only control wells to match percent added with virus. Unless otherwise noted, RSV-A strains were tested at 0.1 MOI and incubated for 5 days in a 37°C, 5% CO2 humidified incubator, and RSV-B at 0.5 MOI for 6 days. Cytopathic effect (CPE) determined using ATPlite (Perkin Elmer) measured with Envision luminometer. For RT-qPCR, RNA was extracted from whole well using Ambion RNAqueous-96 Automated Kit, and RT-qPCR run using Applied Biosystems TaqMan RNA-to-CT 1-Step Kit. […] All EC50s were calculated using the XLFit four-parameter logistic model 200 in Microsoft Excel.

[4] = system: broad panel of other viruses; type: cell-based
[5] = system: RSV-A Long; experiment: CPE assay (ATPlite), RSV-A Long in HEp-2 cells; type: cell-based; conditions: human respiratory syncytial virus, 120 h, HEp-2, RSV-A Long MOI 0.1, 5 days
[6] = system: HEK-293 cells; experiment: Cytotoxicity (ATPlite) in HEK-293 cells; type: cell-based, human; conditions: at up to 50 μM, 3 days
Description: HEp-2, A549, and CHO cells were seeded at 3,000 cpw in their respective growth medium. CHO growth medium used was RPMI medium 1640 with 10% FBS, 1% P/S, 1% GlutaMAX. HEK-293 cells seeded at 10,000 cpw in DMEM growth medium. Undifferentiated HBECs were seeded in collagen-coated 96-well plates at 7,500 cpw in appropriate growth medium. Compound added and incubated for 3 days (4 days for HBECs) as described above. Plates read with ATPlite and CC50 calculated as EC50s as described above. SI = CC50/EC50 within a cell line.

[7] = system: RSV A2; experiment: RSV-infected African Green monkey model, viral load; type: in vivo, African Green monkeys (Chlorocebus)
Description: African Green monkeys (AGMs) are permissive for human RSV infection and support a relatively higher level of viral replication compared to cotton rats and BALB/c mice. It has been previously validated as a non-human primate model for assessing in vivo efficacy of potential RSV vaccines and antiviral drugs. To evaluate the activity of EDP-938 in the AGM model, 4 animals each were treated with 100 mg/kg BID with EDP-938, RSV-604, or vehicle control via oral gavage starting 24 hours prior to RSV challenge and continuing for an additional 5 days. Samples were collected through bronchoalveolar lavage (BAL) and nasopharyngeal (NP) swab at various time points to determine viral load. […] Viral load in the NP swab samples was also determined.
A study of EDP-938 and RSV-604 in the African Green monkey (AGM) animal model was performed by BIOQUAL, Inc (Rockville, Maryland). Methods were similar to those run in a study by Ispas et al.. Six (6) male and 6 female AGMs (Chlorocebus) of 4–5 kg were purchased from PrimGen (Hines, Illinois). Each animal was challenged with 2 x 10^5 PFU of RSV A2 viral inoculum (Virapur, San Diego, CA). Four animals (2 per sex) in each group were treated with EDP-938, RSV-604, or vehicle control (0.5% w/v methylcellulose). The animals were dosed via oral gavage twice daily (every 12 hours), starting 24 hours prior to RSV challenge, and then continuing for an additional 5 days (6 total days of dose administration). Bronchoalveolar lavage (BAL) samples and nasopharyngeal (NP) swabs were collected for viral load determination.

[8] = system: RSV-A2; experiment: CPE assay, RSV-A2 in Vero cells; type: cell-based; conditions: human respiratory syncytial virus
Description: as §3

[9] = system: RSV-A and RSV-B laboratory strains; experiment: CPE assay, RSV laboratory strains across primate cell lines; type: cell-based; conditions: human respiratory syncytial virus, in Primates, read-out: EC50 values, inhibition of CPE (range over strains and cells)
Description: as §1, §2

## O=C1Nc2ccccc2C(c2ccccc2)=N[C@@H]1Nc1nnc(-c2ncc(C(F)(F)F)cc2N2CCOCC2)o1 [EDP-938]
[1]
  EC50: 121 nM
[2]
  EC50: 54 to 110 nM
[3]; 144 h, RSV-B VR-955 MOI 0.5, 6 days
  EC50: 110 ± 22 nM
[3]; RSV-B VR-955
  EC90: 140 ± 24 nM
[4]
  activity against a broad panel of other viruses: did not demonstrate significant activity
[5]; CPE
  EC90: 60 ± 18 nM
[5]; CPE (ATPlite), read-out: EC50
  EC50: 52 ± 12 nM
[6]
  cytotoxicity: no significant cytotoxicity
[7]; 100 mg/kg BID oral gavage
  reduction in peak viral load: ~ 4 log10
[7]; 100 mg/kg BID oral gavage, BAL
  effect on RSV viral load vs vehicle control: completely suppressed viral replication
[7]; 100 mg/kg BID oral gavage, Day 5, to below limit of detection (100 copies/mL)
  viral load reduction in BAL: 4 log10
[7]; 100 mg/kg BID oral gavage, Day 7, to below limit of detection (100 copies/mL)
  viral load reduction in NP swab: 4 log10
[7]; BAL fluid, above the limit of detection
  viral rebound after cessation of treatment: no viral rebound was observed
[8]
  EC50: 33 ± 7 nM
  EC90: 44 ± 18 nM
[9]
  EC50: 28 to 72 nM
